Data set [1] concerns TDP1. On the set-up: method as in PMID 27933897, PMID 30076000, PMID 31619021, doi:10.1134/S1068162017010125, PMID 30396105. As to conditions: cited from earlier work.
Data set [2] can be described thus: Colorimetric cytotoxicity test, HEK293A PARP1-/-. The format is cell-based. Particulars: human, PARP1-/- HEK293A cells; PARP1-/- HEK293A cell line; read-out: CC50 of Tpc. From the text: In our previous works, we checked the cytotoxic effect of Tpc and the TDP1 inhibitors—monoterpene 3-carene-derived compounds [48, 49] and UA combined with monoterpenoids, measured separately and jointly with Tpc—using a panel of HEK293FT and HEK293A Tdp1 knockout isogenic clones. […] The data on the HEK293FT mutants were of low reproducibility, which is why we decided to change the basic cell line to HEK293A [49]. In this work, we created new PARP1-/- HEK293A cells using the CRISPR–Cas9 approach (Figure S27). […] We checked the intrinsic cytotoxicity of the leader compound (10a) on the HEK293 wild type and TDP1-/- and PARP1-/- cell lines using a colorimetric test (Figure 6). […] There was no difference between the WT and mutant cells.
Cytotoxicity of the compounds was examined against human cell lines HEK293A (human embryonic kidney)—WT, TDP1 deficient (Tdp1-/-), PARP1 deficient (PARP1-/-), and HeLa (cervical cancer) using an EZ4U colorimetric test (Biomedica, Vienna, Austria). […] After the formation of a 30–50% monolayer, the tested compounds were added to the medium, and the cell culture was monitored for 3 days. […] The compound concentration that caused 50% cell growth inhibition was determined using OriginPro 8.6.0 software (OriginLab, Northampton, MA, USA). […]

Data set [3] is described as follows: EZ4U colorimetric cytotoxicity test, HEK293A. As to conditions: human. Format: cell-based. From the text: (§1) The low intrinsic cytotoxicity of the additional drug component in the clinically used anticancer cocktails with traditional drugs is very important for treatment. This approach in chemotherapy can reduce the potential resulting toxic load on the body in the case of a combined action of these inhibitors on the activity of several targets. […] The effects of the tested compounds on cell survival are shown on Figure 4 and the CC50 values for three cell lines are shown in Table 1. The intrinsic cytotoxicity of a number of the studied compounds is quite high, namely, they have close IC50 values against the TDP1 and CC50 values on one or several studied cell lines. Most of the compounds generally were more toxic for the HEK293FT and HeLa cell lines than for the HEK293A cell line (Table 1 and Figure 4). The cytotoxicity of the three leader compounds, 7g, 10a, and 7h, was quite high. […] Compound 10b was one of the least toxic among the ten tested compounds.
(§2) Cytotoxicity of the compounds was examined against human cell lines HEK293A (human embryonic kidney)—WT, TDP1 deficient (Tdp1-/-), PARP1 deficient (PARP1-/-), and HeLa (cervical cancer) using an EZ4U colorimetric test (Biomedica, Vienna, Austria). The HEK293A cell line was obtained from Thermo Fisher Scientific (Waltham, MA, USA), and the HeLa cell line was obtained from the Russian Cell Culture Collection (RCCC) Institute of Cytology RAS, St. Petersburg, Russia. The cells were grown in DMEM/F12 medium (Gibco, Thermo Fisher Scientific, Waltham, MA, USA), with 1x GlutaMAX (Gibco, Thermo Fisher Scientific, Waltham, MA, USA), 50 IU/mL penicillin, 50 μg/mL streptomycin (MP Biomedicals), and in the presence of 10% fetal bovine serum (Biolot, Saint-Petersburg, Russia) in a 5% CO2 atmosphere. Cells were grown in the presence of 1% DMSO in the control wells. After the formation of a 30–50% monolayer, the tested compounds were added to the medium, and the cell culture was monitored for 3 days. The values were normalized to their own control in each case. At least three independent experiments were carried out. The 50% cytotoxic concentration (CC50) was defined as the compound concentration that reduced the cell viability by 50% when compared to the untreated controls. The compound concentration that caused 50% cell growth inhibition was determined using OriginPro 8.6.0 software (OriginLab, Northampton, MA, USA). The measurements were carried out in three independent experiments.

Data set [4] concerns HeLa cells. In words: EZ4U colorimetric cytotoxicity test, HeLa. As to conditions: Homo sapiens; HeLa, only Tpc. Format: cell-based, human.
Description: as §1, §2

Data set [5] has as its system HeLa cells. In words: Cytotoxicity of the combination of 10a and topotecan on HeLa cells. Format: cell-based, human. As to conditions: Homo sapiens; HeLa, Tpc titrated with fixed 5 μM 10a; read-out: CC50 of Tpc with 10a.
Description: TDP1 is able to cleave the TOP1–DNA complex, thus preventing the action of Tpc and decreasing the efficiency of this clinically used drug. The inhibition of TDP1 activity can increase the efficiency of Tpc. Next, we checked the cytotoxic effect of the combination of Tpc and examined the TDP1 inhibitors compared to Tpc alone on HeLa cells and HEK293 cells.
We observed the suppressed cell growth in the joint presence of the TDP1 inhibitor and Tpc on HeLa cells compared to Tpc alone (Figure 5). We observed the synergistic effect both when we titrated 10a with addition of fixed Tpc (1 μM or 2 μM) and vice versa when we titrated Tpc with addition of fixed 10a (5 μM). […] The CC50 value of Tpc decreased from 2 μM (only Tpc) to 0.7 μM (Tpc with 5 μM 10a).
as §2, with “The 50% cytotoxic concentration (CC50) was defined as the compound concentration that reduced the cell viability by 50% when compared to the untreated controls.” left out, “The measurements were carried out in three independent experiments.” left out

The nature of data set [6]: Colorimetric cytotoxicity test, HEK293FT. The format is cell-based. Particulars: human, HEK293FT cells, intrinsic cytotoxicity.
Description: as §1, §2

A short description of data set [7]: EZ4U colorimetric cytotoxicity test, HeLa. As to conditions: human, HeLa cells; intrinsic cytotoxicity, compound alone, 3 days. The format is cell-based, human.
Description: as §1, §2

Data set [8] concerns the target T1, TDP1 (Homo sapiens, UniProt Q9NUW8).
T1 construct: made in house; host or cells: E. coli
In words: Real-time fluorescence assay of TDP1 activity. Format: biochemical. Particulars: real-time fluorescent assay, 1.5 nM TDP1, 50 nM oligonucleotide; read-out: IC50 (TDP1). From the text:
We tested UA and all 14 newly synthesized UA derivatives for their TDP1 inhibitory properties by measuring their IC50 values using a real-time fluorescent assay. […] Compounds 10a,b are sulfoxide analogs of 7g,h.
(§3) Human recombinant tyrosyl-DNA phosphodiesterase 1 (TDP1) and human recombinant poly(ADP-ribose)-polymerase1 (PARP1) were expressed in the E. coli system and purified as described.
The biosensor (5′-[FAM] AAC GTC AGGGTC TTC C [BHQ]-3′) was synthesized in the Laboratory of Nucleic Acid Chemistry at the Institute of Chemical Biology and Fundamental Medicine (Novosibirsk, Russia) and was used for TDP1 enzyme activity real-time fluorescence detection. The reaction mixture (200 μL) contained a TDP1 reaction buffer (50 mM Tris-HCl, pH 8.0, 50 mM NaCl, and 7 mM β-mercaptoethanol), 50 nM oligonucleotide, varied concentrations of the tested compounds, and purified TDP1 in a final concentration 1.5 nM. The reaction mixtures were incubated at a constant temperature of 26 °C in a POLARstar OPTIMA fluorimeter (BMG LABTECH, GmbH, Ortenberg, Germany). Fluorescence intensity was measured (Ex485/Em520 nm) every 1 min for 10 min. The average values of the half maximal inhibitory concentration (IC50) were determined using an eleven-point concentration response curve and calculated using MARS Data Analysis 2.0 (BMG LABTECH). The 50% inhibitory concentration (IC50) was defined as the concentration of the compound that inhibited 50% of the enzyme activity when compared to the untreated controls. At least three independent experiments were carried out to obtain the IC50 values. To determine the kinetic parameters of the TDP1 enzymatic reaction, the apparent maximum rate of enzymatic reaction (Vmax), Michaelis constant (KM), possible inhibition mechanism, and steady-state kinetic experiments were carried out at 5 fixed concentrations of the substrate, with variation in the inhibitor concentrations. The standard reaction mixtures (200 μL) contained reaction buffer components; 50 nM, 100 nM, 200 nM, 500 nM, or 1000 nM substrate; an inhibitor; and 1.5 nM recombinant human TDP1. The initial kinetic curves were obtained in three independent experiments and statistically processed in OriginPro 8.6.0 (OriginLab, Northampton, MA, USA).

The target in data set [9] is T2, PARP1 (Homo sapiens, UniProt P09874).
T2 construct: made in house; host or cells: E. coli
Nature of the data set: PARP1 autopoly(ADP-ribosyl)ation assay with [32P]-NAD+. The format is biochemical. As to conditions: 0.5 mM concentration of the compound; read-out: PARP1 residual activity. The method, then: The next step of our study was to test the inhibitors for their ability to inhibit PARP1 and PARP2. UA and the 14 synthesized compounds were tested for the suppression of the ability of PARP1 and PARP2 to include a radioactive label into the acid-insoluble reaction product, poly(ADP-ribose) (PAR). […] The best effect we observed was for 9; the residual activity was 40 ± 5% under the reaction conditions (0.5 mM concentration of the compound), indicated in Materials and Methods.
as §3
The radioactive labeled [32P]-NAD+ was synthesized from α–[32P]-ATP according to [55]. The reaction of autopoly(ADP-ribosyl)ation was carried out as follows: for PARP1, 50 mM Tris-HCl, pH 8.0, 10 mM MgCl2, 150 mM NaCl, and 7 mM β-mercaptoethanol, as well as activated DNA 2 oe/mL, 0.3 mM [^32P]-NAD+ at 37 °C. The reaction was initiated by adding PARP1 to 200 nM and the reaction mixtures were incubated for 2 min. For PARP2: 50 mM Tris-HCl, pH 8.0, 3 mM spermin, 150 mM NaCl, and 7 mM β-mercaptoethanol, as well as activated DNA 2 oe/mL, 0.6 mM [^32P] NAD+ at 37 °C. […] The incorporation of radioactivity into the product was calculated using a Typhoon FLA 9500 scanner (GE Healthcare, Chicago, IL, USA). […]

As usually defined, the IC50 is the concentration at which inhibition is half-maximal. The CC50 is the concentration that lowers cell viability or growth by half.

T1 sequence (Q9NUW8 whole entry): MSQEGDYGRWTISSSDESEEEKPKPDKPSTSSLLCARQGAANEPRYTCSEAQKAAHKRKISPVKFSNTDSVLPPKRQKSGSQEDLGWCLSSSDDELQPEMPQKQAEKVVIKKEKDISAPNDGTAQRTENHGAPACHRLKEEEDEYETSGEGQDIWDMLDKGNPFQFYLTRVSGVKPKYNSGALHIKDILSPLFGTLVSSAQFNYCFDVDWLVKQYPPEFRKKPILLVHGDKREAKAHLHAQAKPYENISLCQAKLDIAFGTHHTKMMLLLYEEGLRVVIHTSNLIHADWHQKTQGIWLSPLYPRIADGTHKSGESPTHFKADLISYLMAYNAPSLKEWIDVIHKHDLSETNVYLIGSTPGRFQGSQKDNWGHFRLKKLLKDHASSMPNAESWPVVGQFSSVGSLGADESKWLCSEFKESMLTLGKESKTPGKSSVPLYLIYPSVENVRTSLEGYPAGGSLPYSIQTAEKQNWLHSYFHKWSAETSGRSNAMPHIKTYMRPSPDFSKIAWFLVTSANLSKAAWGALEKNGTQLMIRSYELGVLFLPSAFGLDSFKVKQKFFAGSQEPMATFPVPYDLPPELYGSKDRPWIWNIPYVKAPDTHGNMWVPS
T2 sequence (P09874 whole entry): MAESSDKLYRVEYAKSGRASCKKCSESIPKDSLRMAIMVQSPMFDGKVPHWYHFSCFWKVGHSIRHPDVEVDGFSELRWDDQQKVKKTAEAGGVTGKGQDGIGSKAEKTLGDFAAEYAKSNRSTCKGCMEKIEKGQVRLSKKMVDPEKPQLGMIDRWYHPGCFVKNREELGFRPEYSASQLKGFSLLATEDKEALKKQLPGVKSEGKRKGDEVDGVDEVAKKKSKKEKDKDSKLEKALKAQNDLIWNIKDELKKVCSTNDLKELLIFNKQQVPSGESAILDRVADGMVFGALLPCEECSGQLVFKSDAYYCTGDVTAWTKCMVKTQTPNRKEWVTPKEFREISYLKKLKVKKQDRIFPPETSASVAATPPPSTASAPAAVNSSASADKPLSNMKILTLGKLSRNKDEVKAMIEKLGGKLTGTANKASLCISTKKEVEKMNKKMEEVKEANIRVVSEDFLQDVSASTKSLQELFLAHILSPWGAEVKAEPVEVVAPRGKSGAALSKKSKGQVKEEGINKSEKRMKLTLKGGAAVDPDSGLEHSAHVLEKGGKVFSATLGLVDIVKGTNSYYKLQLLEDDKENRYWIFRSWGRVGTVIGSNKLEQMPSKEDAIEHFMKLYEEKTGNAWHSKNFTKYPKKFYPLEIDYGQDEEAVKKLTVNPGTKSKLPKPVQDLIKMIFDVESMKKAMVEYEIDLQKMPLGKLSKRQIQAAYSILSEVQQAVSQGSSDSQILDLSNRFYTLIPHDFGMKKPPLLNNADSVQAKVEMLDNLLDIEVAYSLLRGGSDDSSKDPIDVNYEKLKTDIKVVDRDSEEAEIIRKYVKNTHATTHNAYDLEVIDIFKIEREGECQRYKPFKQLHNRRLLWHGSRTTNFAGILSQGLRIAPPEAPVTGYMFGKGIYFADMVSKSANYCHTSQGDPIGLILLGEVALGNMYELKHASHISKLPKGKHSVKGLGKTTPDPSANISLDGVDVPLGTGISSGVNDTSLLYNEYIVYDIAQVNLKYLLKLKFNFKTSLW

With `CC(=O)C1=C(O)C=C2Oc3c4c(c(C)c(O)c3[C@@]2(C)C1=O)O/C(=C\c1ccc(Br)cc1)C4=O` [compound 3], the IC50 in data set [1] is 0.15 µM.

With `CC(=O)c1c(O)c(C)c(O)c2c1OC1=CC(=O)/C(=C(/C)NCCCc3cc(C(C)(C)C)c(O)c(C(C)(C)C)c3)C(=O)[C@@]12C` [compound 2], the half-inhibitory concentration (IC50) in data set [1] is 0.16 µM.

As to `CC[C@@]1(O)C(=O)OCc2c1cc1n(c2=O)Cc2cc3c(CN(C)C)c(O)ccc3nc2-1` [Tpc, topotecan, reference compound], the 50% cytotoxic concentration (CC50) at 3 days in data set [2] turned out to be 0.05 ± 0.005 µM; in data set [3] (wild-type HEK293A cells, WT HEK293A cells, read-out: CC50 of Tpc) it was 0.027 ± 0.004 µM. Further, the cytotoxic concentration (CC50) in data set [4] stood at 2 µM; in [5], 0.7 µM.

On to `CC(=O)C1=C(O)C=C2Oc3c(C(=O)CSC#N)c(O)c(C)c(O)c3[C@@]2(C)C1=O` [compound 5], for which the concentration for half-maximal inhibition (IC50) in data set [1] was 1.16 µM.

For the compound `CC(=O)C1=C(O)C=C2Oc3c(C(=O)CSC(N)=O)c(O)c(C)c(O)c3[C@@]2(C)C1=O` [compound 9, (2R)-4-acetyl-10-[2-(carbamoylsulfanyl)acetyl]-5,11,13-trihydroxy-2,12-dimethyl-8-oxatricyclo[7.4.0.0^2,7]trideca-1(13),4,6,9,11-pentaen-3-one], the CC50 at 3 days was above 50 µM in [3] (HEK293A cells, intrinsic cytotoxicity, 3 days, read-out: HEK293A CC50); 7 ± 2 µM in data set [6]; 13 ± 1 µM in data set [7]. Moreover, the IC50 in [8] was 6.6 ± 1 µM. The remaining activity at 500 µM in data set [9] amounted to 40 ± 5%.

(Values after paper PMC8583042, “New Hybrid Compounds Combining Fragments of Usnic Acid and Thioether Are Inhibitors of Human Enzymes TDP1, TDP2 and PARP1” (International Journal of Molecular Sciences, 2021).)
